Laboratory results published in ChEMBL document CHEMBL4480460, “Concise Modular Synthesis of Thalassotalic Acids A-C” (J Nat Prod, 2019).

These molecules were tested against T1, Tyrosinase (Agaricus bisporus, UniProt O42713).
T1 sequence (O42713 whole entry): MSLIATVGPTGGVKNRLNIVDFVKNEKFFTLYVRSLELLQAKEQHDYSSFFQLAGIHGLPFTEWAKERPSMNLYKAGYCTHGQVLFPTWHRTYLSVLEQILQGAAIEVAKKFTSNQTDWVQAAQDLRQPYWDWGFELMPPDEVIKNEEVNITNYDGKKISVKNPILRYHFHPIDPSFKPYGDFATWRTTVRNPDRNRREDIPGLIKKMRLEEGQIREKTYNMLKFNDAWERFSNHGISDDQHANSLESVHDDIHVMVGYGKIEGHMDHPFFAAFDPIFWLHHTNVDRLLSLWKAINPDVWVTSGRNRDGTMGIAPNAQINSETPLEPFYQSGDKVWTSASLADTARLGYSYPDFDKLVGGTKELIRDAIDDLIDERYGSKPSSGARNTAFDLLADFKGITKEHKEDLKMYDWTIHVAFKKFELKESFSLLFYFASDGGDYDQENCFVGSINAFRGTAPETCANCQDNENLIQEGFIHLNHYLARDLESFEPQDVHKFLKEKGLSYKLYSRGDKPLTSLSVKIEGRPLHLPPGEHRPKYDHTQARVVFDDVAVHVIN
Description: Inhibition of mushroom tyrosinase using L-tyrosine as substrate measured after 30 mins

Row | IC50 | Compound
1 | 65 µM | CC(=O)N/C(=C\c1ccc(O)cc1)C(=O)O
2 | 180 µM | O=C(O)/C(=C/c1ccc(O)cc1)NC(=O)c1ccccc1
3 | 250 µM | CCCCCCCCC(=O)N/C(=C\c1ccc(O)cc1)C(=O)O
